Common to all, as to format: in vivo
Test [1] has as its system Venturia inaequalis. The test can be described thus: Venturia Test (Apples)/Preventive. The settings on record: preventive spray, evaluated 10 days after inoculation.
Test [2] has as its system Phytophthora infestans. The settings on record: tomatoes, preventive spray, evaluated 3 days after inoculation.
Test [3] concerns Alternaria solani. The test can be described thus: Alternaria Test (Tomatoes)/Preventive. Particulars: preventive spray, 100 ppm a.i., evaluated 3 days after inoculation.

Where two headings read alike, the source gives them in different places.

Regarding `N#Cc1c(Cl)c(Cl)c(Cl)c(C#N)c1Cl` [F155 chlorothalonil, chlorothalonil], the “Efficacy in % found” value in test [1] (10 ppm a.i.) came to 43%.

Turning to `O=C(NCc1ncc(C(F)(F)F)cc1Cl)c1c(Cl)cccc1Cl` [F143 fluopicolide, fluopicolide], the “Efficacy in % found” value in test [2] (Table A1, 5 ppm a.i.) came to 32%; in test [3], 0%.

In the case of mancozeb [F174 mancozeb], the “Efficacy in % found” value stood at 15% in test [2] (Table A2, 10 ppm a.i.) and 24% in test [1] (20 ppm a.i.).

With propineb [F180 propineb], in test [2] (Table A2, 10 ppm a.i.), the “Efficacy in % found” value turned out to be 23%.

Source of the values: patent US10028509B2 (priority 2012, dated 2018).
